# Results as given in patent US11390644B2, “Raman tag” (Purdue Research Foundation, priority 2014, dated 2022).
# Entries after “also recorded” stand apart in the source; their conditions may differ.
# Assays:
# CHO cells [1] = assay: MTT cell-viability assay of tagged cholesterols; assay type: cell-based, Chinese hamster
# Procedure: (§1) Referring now to FIG. 3, the cytotoxicity of cholesterol mimics was evaluated by MTT cell-viability assays after treating CHO cells with cholesterol mimic. Various concentrations of cholesterol mimic were added to the culture media and the cells were incubated for 48 hours before the assays were conducted. […] Adding a phenyl group reduced the cytotoxicity. To directly visualize the toxic effect, we stained the cells with propidium iodide for late apoptosis and necrosis.
# (§2) To evaluate the cytotoxicity of tagged cholesterols, we performed MTT cell-viability assays after treating CHO cells with tagged cholesterol. […] To directly visualize the toxic effect, we stained the cells with propidium iodide for late apoptosis and necrosis. […] Based on the signal level and the severity of toxicity, we conclude that PhDY-Chol is the most suitable cholesterol probe for live cell imaging, and we used PhDY-Chol in subsequent experiments.
# (§3) CHO cells were grown in 96-well plates with density of 4000 cells per well. The next day, the cells were treated with each cholesterol probe at the indicated concentrations for 48 h. Cell-viability was measured with the MTT colorimetric assay (Sigma).
# [2] = MTT cell-viability assay of tagged cholesterols; assay type: cell-based, Chinese hamster; conditions: Chinese hamster; CHO cells, 48 h incubation; read-out: IC50 (cytotoxicity, MTT cell viability)
# Procedure: as §1, §2, §3
# CHO cells [3] = assay: Propidium iodide staining for late apoptosis and necrosis; assay type: cell-based, Chinese hamster; conditions: 30 μM, 24 h
# Procedure: as §1
# as §2, with “cholesterol. Various concentrations of tagged cholesterol were added to the culture media and the cells were incubated for 48 h before the assays were conducted.” for “cholesterol.”
# Propidium iodide was used to stain late apoptotic or necrotic cells. CHO cells were incubated with 30 μM of tagged cholesterol molecules for 24 h. The propidium iodide staining was performed following protocols provided by the manufacturer (Life Technologies).
# M12 cells = assay: HPβCD treatment of PhDY-Chol-labeled M12 cells; assay type: cell-based, Chinese hamster; conditions: HPβCD 500 μM, 30 h
# Description: We then treated the PhDY-Chol-labeled M12 cells with a cholesterol-mobilizing drug, hydroxypropyl-β-cyclodextrin (HPβCD). This drug is known to mediate lysosomal escape of cholesterol, and promote storage of excess cholesterol into LDs. […] These areas likely represent PhDY-cholesteryl ester stored in LDs. To confirm this possibility, we stained the cells with BODIPY for localization of LDs.
# We then treated the PhDY-Chol-labeled M12 cells with a cholesterol-mobilizing drug, HPβCD^40. This drug is known to mediate lysosomal escape of cholesterol, and promote storage of excess cholesterol into LDs^41. […] These areas likely represent PhDY-cholesteryl ester stored in LDs. To confirm this possibility, we stained the cells with BODIPY for localization of LDs.
# HPβCD was used as a drug treatment of NP-C disease. M12 cells were incubated with PhDY-Chol for 16 h as described above. […]
# (§4) To quantify PhDY-rich area, we first selected one cell and used “Threshold” function to select PhDY-rich cellular regions using ImageJ. […] To quantify PhDY-rich LDs, “Image Calculator” function in ImageJ was used to multiply SRS image of PhDY-Chol by TPEF image of BODIPY. Then, after using “Threshold” function to select PhDY-rich LDs, the number of PhDY-rich LDs was counted by “Analyze Particles” function. For each group, 7 cells were analyzed, and results were shown as mean±standard deviation (SD). […]
# [4] = Photostability under continuous SRS / TPEF image acquisition; assay type: physicochemical; conditions: 50 mM solution, acquired continuously for 150 s, one acquisition every 30 s
# Procedure: FIG. 14. The photostability of PhDY-Chol and the photo-bleaching of BODIPY-Chol. The SRS images of 50 mM PhDY-Chol solution and TPEF images of 50 mM BODIPY-Chol solution were acquired continuously for 150 s (one acquisition every 30 s).
# ACAT-1 = target: T1, ACAT-1 (Cricetulus griseus, UniProt Q60457); assay: ACAT-1 inhibition (avasimibe) blocking probe storage into lipid droplets; assay type: cell-based, Chinese hamster; conditions: CHO cells
# T1 construct: endogenous in cells; host or cells: CHO-K1 cells
# T1 sequence (Q60457 1-546): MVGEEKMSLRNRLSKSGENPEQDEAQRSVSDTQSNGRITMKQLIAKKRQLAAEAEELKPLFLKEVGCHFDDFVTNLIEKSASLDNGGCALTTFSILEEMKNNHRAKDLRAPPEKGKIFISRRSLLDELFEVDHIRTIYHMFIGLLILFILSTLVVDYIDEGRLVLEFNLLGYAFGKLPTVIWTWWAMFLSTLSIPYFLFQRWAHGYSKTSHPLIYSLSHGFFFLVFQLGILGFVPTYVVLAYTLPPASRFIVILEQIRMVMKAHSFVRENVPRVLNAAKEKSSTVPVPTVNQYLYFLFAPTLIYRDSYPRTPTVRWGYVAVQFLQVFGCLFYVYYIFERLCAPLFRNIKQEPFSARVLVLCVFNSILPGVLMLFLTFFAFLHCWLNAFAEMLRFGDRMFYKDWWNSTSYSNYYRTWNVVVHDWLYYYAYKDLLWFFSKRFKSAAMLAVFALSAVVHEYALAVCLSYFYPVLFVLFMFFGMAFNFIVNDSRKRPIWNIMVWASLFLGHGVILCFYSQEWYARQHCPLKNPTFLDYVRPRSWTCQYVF
# Procedure: (§5) It is hypothesized that PhDY-Chol is converted into PhDY-cholesteryl ester, by ACAT-1, the enzyme responsible for cholesterol esterification, as diagrammed in FIG. 4. To confirm the esterification of PhDY-Chol, we inhibited ACAT-1 with avasimibe for 24 h before addition of PhDY-Chol. […] Although LDs were still visible, the amount of PhDY-Chol signal found inside LDs reduced by 4 times (FIG. 4d). […] To determine where PhDY-Chol accumulates after ACAT-1 inhibition, we stained the cells with LysoTracker for lysosomes. […] To emphasize the physiological compatibility of our PhDY tag, we treated CHO cells with BODIPY-cholesterol.
# as §5, with “important to note that PhDY-Chol-rich structures inside the CHO cells could not be stained by filipin (FIG. 10b), implicating that it is not in the free form. We hypothesize” for “hypothesized”, “esterification (FIG. 4b).” for “esterification, as diagrammed in FIG. 4.”
# ACAT-1 inhibition was used to block cholesterol esterification either by adding a potent ACAT inhibitor, avasimibe, or by RNA interference with ACAT-1 shRNA plasmid. […]
# as §4
molecule,measurement,setting,value
"C#CCC[C@@H](C)[C@H]1CC[C@H]2[C@@H]3CC=C4C[C@@H](O)CC[C@]4(C)[C@H]3CC[C@]12C [A-Chol, alkyne cholesterol]",cytotoxicity in MTT cell-viability assay,"CHO cells [1]; CHO cells, various concentrations, 48 h",toxic to the cells
same,IC50 at 48 h,[2],16 µM
same,"late apoptosis and necrosis, propidium iodide staining",CHO cells [3],reduced density and extensive apoptosis
same,"late apoptosis and necrosis, propidium iodide staining",CHO cells [3]; listed as alkyne-cholesterol,induces apoptosis and necrosis
hydroxypropyl-β-cyclodextrin [HPβCD],amount of PhDY-Chol in M12 cells after treatment,M12 cells,decreased by half
same,number of PhDY-rich LDs after treatment,M12 cells; BODIPY staining,increased significantly
"C[C@H](CCC#CC#Cc1ccccc1)[C@H]1CC[C@H]2[C@@H]3CC=C4C[C@@H](O)CC[C@]4(C)[C@H]3CC[C@]12C [PhDY-Chol, phenyl-diyne cholesterol]",photostability / photo-bleaching of signal,[4],No significant change of the SRS signal
same,cytotoxicity,CHO cells [1]; 16 h incubation at 50 μM,did not cause cytotoxicity
same,"late apoptosis and necrosis, propidium iodide staining",CHO cells [3],minimum cell death
same,reduction of probe signal found inside LDs after ACAT-1 inhibition,ACAT-1; avasimibe 10 μM 24 h pre-treatment,4 times
same,localization after ACAT-1 inhibition (LysoTracker staining),ACAT-1; avasimibe treatment,partially located in lysosomes
"C[C@H](CCC#Cc1ccccc1)[C@H]1CC[C@H]2[C@@H]3CC=C4C[C@@H](O)CC[C@]4(C)[C@H]3CC[C@]12C [PhA-Chol, phenyl-alkyne cholesterol]","late apoptosis and necrosis, propidium iodide staining",CHO cells [3],minimum cell death
"CC1=CC(C)=[N+]2C1=C(CC[C@@H](C)[C@H]1CC[C@H]3[C@@H]4CC=C5C[C@@H](O)CC[C@]5(C)[C@H]4CC[C@]13C)c1c(C)cc(C)n1[B-]2(F)F [BODIPY-cholesterol, reference compound]",photostability / photo-bleaching of signal,[4],rapid photo-bleaching
same,amount of probe incorporated into LDs after ACAT-1 inhibition,ACAT-1; ACAT-1 inhibited vs control,did not change; also recorded: no difference between the two groups
